The record followed here is ChEMBL document CHEMBL1157232, “Wortmannilactones A-D, 22-membered triene macrolides from Talaromyces wortmannii” (J Nat Prod, 2006).

One test deals with A549. In words: Cytotoxicity against human A549 cells. The format is functional, cell-based.
Another test relates to K562. In words: Cytotoxicity against human K562 cells. Type of test: functional, cell-based.
The next test deals with MDA-MB-231. In words: Cytotoxicity against human MDA-MB-231 cells. Type of test: functional, cell-based.
Test [1] in a line: Cytotoxicity against human HCT5 cells. The format is functional, cell-based.
Test [2] is described as follows: Cytotoxicity against human HCT115 cells. The format is functional, cell-based.
The subject of the next test is Human alphaherpesvirus 2. In words: Antiviral activity against Herpes simplex virus 2. The format is functional, organism-based.
The next test has as its system Human alphaherpesvirus 1. In words: Antiviral activity against Herpes simplex virus 1. The format is functional, organism-based.
In the next test the test system is B16-F10. In words: Cytotoxicity against mouse B16-F10 cells. Type of test: functional, cell-based.

Each structure is given as a SMILES string. ≈ marks a conversion by molar mass, not a printed value.

Take `CC(O)CC1CC(O)/C=C/C=C/C=C/CC(O)CC(O)C/C=C/C=C/C=C/C(=O)O1` (stereo not drawn) [WORTMANNILACTONE C]: the IC50 with A549 was 118 µM; with K562, 130 µM; in the test with MDA-MB-231, 120 µM; in test [1], 56.3 µM; in test [2] it was 52.4 µM.
For `C[C@@H]1CCC/C=C/C=C/[C@H](O)C[C@@H](O)C/C=C\C=C\[C@@H](O)C/C=C/C=C\C(=O)O1` [MACROLACTIN A], the concentration for half-maximal inhibition (IC50) in the test on Human alphaherpesvirus 2 amounted to 8.3 µg/mL (≈ 20.6 µM); in the test with Human alphaherpesvirus 1 it was 5 µg/mL (≈ 12.4 µM); in the test with B16-F10, 3.5 µg/mL (≈ 8.69 µM).
With `CC(O)CC1C/C=C/C=C/C=C/C(O)CC(O)CC(O)C/C=C/C=C/C=C/C(=O)O1` (stereo not drawn) [WORTMANNILACTONE A], the IC50 with A549 was determined as 76.5 µM; in the test on K562 it was 65.7 µM; with MDA-MB-231, 108 µM; in test [1] it was 28.7 µM; in test [2] it was 35 µM.
Turning to `COC1/C=C/C=C/C=C/CC(O)CC(O)C/C=C/C=C/C=C/C(=O)OC(CC(C)O)C1` (stereo not drawn) [WORTMANNILACTONE D], the 50% inhibitory concentration (IC50) worked out at 116 µM with A549; 123 µM in the test with K562; 111 µM in the test with MDA-MB-231; 46.3 µM in test [1]; 44.7 µM in test [2].
For `COC1/C=C/C=C/C=C/CC(CC(C)O)OC(=O)/C=C/C=C/C=C/CC(O)CC(O)C1` (stereo not drawn) [WORTMANNILACTONE B], the 50% inhibitory concentration (IC50) was 104 µM in the test on A549; 116 µM in the test with K562; 95.6 µM in the test on MDA-MB-231; 32.4 µM in test [1]; 41.7 µM in test [2].

One may read the IC50 as the concentration needed to halve the response being measured.
